Laboratory results taken from US20240409585A1, “MACROCYCLIC IMMUNOMODULATORS” (priority 2021, published 2024).
Bridge positions count the residues as written; N and C are the ends. Square brackets hold non-standard residues; d marks the D form. Peptide text beside a SMILES is read from it. * marks the point of attachment. Phe(4-COOH) = N[C@@H](Cc1ccc(C(=O)O)cc1)C(=O)O; Bip = N[C@@H](Cc1ccc(-c2ccccc2)cc1)C(=O)O; Phe(3-F) = N[C@@H](Cc1cccc(F)c1)C(=O)O; Phe(3-Me) = Cc1cccc(C[C@H](N)C(=O)O)c1; Val(3-OH) = CC(C)(O)[C@H](N)C(=O)O; 3Pal = N[C@@H](Cc1cccnc1)C(=O)O; 4Pal = N[C@@H](Cc1ccncc1)C(=O)O; Cha = N[C@@H](CC1CCCCC1)C(=O)O; Carboxymethyl = O=C(O)C*; NMeA = CN[C@@H](C)C(=O)O; Dab = NCC[C@H](N)C(=O)O

Molecular target: T1, PE-labeled human PD-L1-Ig binding to Jurkat cell line over-expressing human PD-1 (Jurkat-PD-1) (Homo sapiens, UniProt Q15116)
T1 construct: expressed in transfected cells; host or cells: Jurkat
T1 sequence (Q15116 25-288): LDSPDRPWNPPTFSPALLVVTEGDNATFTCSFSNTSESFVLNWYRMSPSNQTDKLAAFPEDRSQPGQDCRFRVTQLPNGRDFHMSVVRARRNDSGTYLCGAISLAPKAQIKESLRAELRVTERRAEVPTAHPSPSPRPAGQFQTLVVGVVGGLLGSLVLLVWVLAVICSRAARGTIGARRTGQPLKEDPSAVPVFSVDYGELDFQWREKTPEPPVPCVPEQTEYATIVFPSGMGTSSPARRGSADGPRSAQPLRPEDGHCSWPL
Assay: Jurkat-PD-1 Cell Binding High-Content Screening Assay (CBA): Method 1
Conditions: Jurkat-hPD-1 cells, PE-labeled PD-L1-Ig 20 nM final; read-out: Jurkat HPDL1 PD1 IC50 (uM) (Method 1)

CC(C)C[C@@H]1NC(=O)[C@H](Cc2c[nH]c3ccccc23)NC(=O)[C@H](CC(=O)O)NC(=O)[C@H](Cc2ccc(O)cc2)NC(=O)[C@H](Cc2ccccc2)NC(=O)CSC[C@@H](C(=O)NCC(N)=O)NC(=O)[C@H](CO)NC(=O)[C@H](C(C)C)NC(=O)[C@H](CC(C)C)NC(=O)[C@H](CCN)NC(=O)[C@@H](CC(C)C)NC(=O)[C@H](C)N(C)C(=O)[C@H](CCC(=O)O)NC(=O)[C@H](Cc2ccc(-c3ccccc3)cc2)NC1=O [Compound 1513] ({CH2CO}-FYDWL[Bip]E[NMeA][dL][Dab]LVSCG-NH2; thioether N-14)
IC50: 0.02 µM

CC(C)C[C@H]1NC(=O)[C@H](C)N(C)C(=O)[C@H](CCCCN)NC(=O)[C@H](Cc2ccc(-c3ccccc3)cc2)NC(=O)[C@H](C(C)C)NC(=O)[C@H](Cc2c[nH]c3ccccc23)NC(=O)[C@H](CC(=O)O)NC(=O)[C@H](Cc2ccncc2)NC(=O)[C@H](Cc2ccc(OCC(=O)O)cc2)NC(=O)CSC[C@@H](C(N)=O)NC(=O)[C@H](CO)NC(=O)[C@H](C(C)C)NC(=O)[C@H](CC2CCCCC2)NC(=O)[C@H](CC(N)=O)NC1=O [Compound 2244] ({CH2CO}-Y(Carboxymethyl)[4Pal]DWV[Bip]K[NMeA][dL]N[Cha]VSC-NH2; thioether N-14)
IC50: 0.04 µM

Cc1cccc(C[C@@H]2NC(=O)[C@H](CC(=O)O)NC(=O)[C@H](Cc3ccc(OCC(=O)O)cc3)NC(=O)[C@H]([C@@H](C)O)NC(=O)CSC[C@@H](C(N)=O)NC(=O)[C@H](CCC(=O)O)NC(=O)[C@H](C(C)C)NC(=O)[C@H](CC3CCCCC3)NC(=O)[C@H](CCN)NC(=O)[C@@H](CC(C)C)NC(=O)[C@H](C)N(C)C(=O)[C@H](Cc3ccc(OCC(=O)O)cc3)NC(=O)[C@H](Cc3ccc(-c4ccccc4)cc3)NC(=O)[C@H](Cc3ccc(OCC(=O)O)cc3)NC2=O)c1 [Compound 1673] ({CH2CO}-TY(Carboxymethyl)D[Phe(3-Me)]Y(Carboxymethyl)[Bip]Y(Carboxymethyl)[NMeA][dL][Dab][Cha]VEC-NH2; thioether N-14)
IC50: 0.09 µM

CCNC(=O)[C@H](CCN)NC(=O)[C@@H]1CSCC(=O)N[C@@H](Cc2ccncc2)C(=O)N[C@@H](Cc2ccc(OCC(=O)O)cc2)C(=O)N[C@@H](CC(=O)O)C(=O)N[C@@H](Cc2cccc(C)c2)C(=O)N[C@@H](Cc2cccc(F)c2)C(=O)N[C@@H](Cc2ccc(-c3ccccc3)cc2)C(=O)N[C@@H](Cc2ccc(OCC(=O)O)cc2)C(=O)N(C)[C@@H](C)C(=O)N[C@H](CC(C)C)C(=O)N[C@@H](CCN)C(=O)N[C@@H](CC2CCCCC2)C(=O)N[C@@H](C(C)(C)O)C(=O)N[C@@H](CO)C(=O)N1 [Compound 1845] ({CH2CO}-[4Pal]Y(Carboxymethyl)D[Phe(3-Me)][Phe(3-F)][Bip]Y(Carboxymethyl)[NMeA][dL][Dab][Cha][Val(3-OH)]SC[Dab]-NHEt; thioether N-14)
IC50: 0.01 µM

CC(C)C[C@@H]1NC(=O)[C@H](Cc2c[nH]c3ccccc23)NC(=O)[C@H](CC(=O)O)NC(=O)[C@H](Cc2ccc(C(=O)O)cc2)NC(=O)[C@H](CC(N)=O)NC(=O)CSC[C@@H](C(=O)N[C@@H](C)C(N)=O)NC(=O)[C@H](CO)NC(=O)[C@H](C(C)C)NC(=O)[C@H](CC(C)C)NC(=O)[C@H](CC(N)=O)NC(=O)[C@@H](C)NC(=O)[C@H](C)N(C)C(=O)[C@H](C(C)C)NC(=O)[C@H](Cc2ccc(-c3ccccc3)cc2)NC1=O [Compound 1754] ({CH2CO}-N[Phe(4-COOH)]DWL[Bip]V[NMeA][dA]NLVSCA-NH2; thioether N-14)
IC50: 0.03 µM

Cc1cccc(C[C@@H]2NC(=O)[C@H](CC(=O)O)NC(=O)[C@H](Cc3ccc(OCC(=O)O)cc3)NC(=O)[C@H](Cc3ccc(OCC(=O)O)cc3)NC(=O)CSC[C@@H](C(=O)N[C@@H](C)C(N)=O)NC(=O)[C@H](CO)NC(=O)[C@H](C(C)C)NC(=O)[C@H](CC(C)C)NC(=O)[C@H](CC(N)=O)NC(=O)[C@@H](C)NC(=O)[C@H](C)N(C)C(=O)[C@H](C(C)C)NC(=O)[C@H](Cc3ccc(-c4ccccc4)cc3)NC(=O)[C@H](CC(C)C)NC2=O)c1 [Compound 1580] ({CH2CO}-Y(Carboxymethyl)Y(Carboxymethyl)D[Phe(3-Me)]L[Bip]V[NMeA][dA]NLVSCA-NH2; thioether N-14)
IC50: 0.01 µM

CC(C)C[C@@H]1NC(=O)[C@H](C)NC(=O)[C@@H](C)NC(=O)[C@H](C)N(C)C(=O)[C@H](CCC(=O)O)NC(=O)[C@H](Cc2ccc(-c3ccccc3)cc2)NC(=O)[C@H](CC(C)C)NC(=O)[C@H](Cc2c[nH]c3ccccc23)NC(=O)[C@H](CC(=O)O)NC(=O)[C@H](Cc2ccc(C(=O)O)cc2)NC(=O)[C@H](Cc2ccccc2)NC(=O)CSC[C@@H](C(=O)N[C@@H](C)C(N)=O)NC(=O)[C@H](CO)NC(=O)[C@H](C(C)C)NC1=O [Compound 1773] ({CH2CO}-F[Phe(4-COOH)]DWL[Bip]E[NMeA][dA]ALVSCA-NH2; thioether N-14)
IC50: 0.05 µM

CC(C)C[C@@H]1NC(=O)[C@H](C)NC(=O)[C@@H](C)NC(=O)[C@H](C)N(C)C(=O)[C@H](CCC(=O)O)NC(=O)[C@H](Cc2ccc(-c3ccccc3)cc2)NC(=O)[C@H](CC(C)C)NC(=O)[C@H](Cc2c[nH]c3ccccc23)NC(=O)[C@H](CC(=O)O)NC(=O)[C@H](Cc2ccc(C(=O)O)cc2)NC(=O)[C@H](Cc2cccnc2)NC(=O)CSC[C@@H](C(=O)N[C@@H](C)C(N)=O)NC(=O)[C@H](CO)NC(=O)[C@H](C(C)C)NC1=O [Compound 1786] ({CH2CO}-[3Pal][Phe(4-COOH)]DWL[Bip]E[NMeA][dA]ALVSCA-NH2; thioether N-14)
IC50: 0.1 µM

CC(C)C[C@@H]1NC(=O)[C@H](Cc2c[nH]c3ccccc23)NC(=O)[C@H](CC(=O)O)NC(=O)[C@H](Cc2ccc(OCC(=O)O)cc2)NC(=O)[C@H](Cc2ccccc2)NC(=O)CSC[C@@H](C(=O)N[C@@H](C)C(N)=O)NC(=O)[C@H](CO)NC(=O)[C@H](C(C)C)NC(=O)[C@H](CC(C)C)NC(=O)[C@H](CC(=O)O)NC(=O)[C@@H](CC(C)C)NC(=O)[C@H](C)N(C)C(=O)[C@H](C(C)C)NC(=O)[C@H](Cc2ccc(-c3ccccc3)cc2)NC1=O [Compound 2027] ({CH2CO}-FY(Carboxymethyl)DWL[Bip]V[NMeA][dL]DLVSCA-NH2; thioether N-14)
IC50: 0.02 µM

CC(C)C[C@@H]1NC(=O)[C@H](Cc2c[nH]c3ccccc23)NC(=O)[C@H](CC(=O)O)NC(=O)[C@H](Cc2ccc(O)cc2)NC(=O)[C@H](Cc2ccccc2)NC(=O)CSC[C@@H](C(=O)NCC(N)=O)NC(=O)[C@H]([C@@H](C)O)NC(=O)[C@H](C(C)C)NC(=O)[C@H](CC(C)C)NC(=O)[C@H](CC(N)=O)NC(=O)[C@@H](CC(C)C)NC(=O)[C@H](C)N(C)C(=O)[C@H](C(C)C)NC(=O)[C@H](Cc2ccc(-c3ccccc3)cc2)NC1=O [Compound 1466] ({CH2CO}-FYDWL[Bip]V[NMeA][dL]NLVTCG-NH2; thioether N-14)
IC50: 0.02 µM

CC(C)C[C@H]1NC(=O)[C@H](C)N(C)C(=O)[C@H](C(C)C)NC(=O)[C@H](Cc2ccc(-c3ccccc3)cc2)NC(=O)[C@H](C(C)C)NC(=O)[C@H](Cc2c[nH]c3ccccc23)NC(=O)[C@H](CC(=O)O)NC(=O)[C@H](Cc2ccc(O)cc2)NC(=O)[C@H](CC(N)=O)NC(=O)CSC[C@@H](C(=O)N[C@@H](C)C(N)=O)NC(=O)[C@H]([C@@H](C)O)NC(=O)[C@H](C(C)C)NC(=O)[C@H](CC2CCCCC2)NC(=O)[C@H](CCN)NC1=O [Compound 1296] ({CH2CO}-NYDWV[Bip]V[NMeA][dL][Dab][Cha]VTCA-NH2; thioether N-14)
IC50: 0.01 µM
